Activity calls are given as the source filed them. No cut-off for these calls is given here.
Assays:
HeLa = test: cells; conditions: Homo sapiens, 96 h
[1] = target: Cellular tumor antigen p53 (Homo sapiens) (UniProt P04637); test: Activation of p53 pathway in human HCT-116 cells incubated for 24 hrs by Western blot analysis; format: cell-based; conditions: filed as activator, dose 0.078125-2.5 µM, DDE = dose-dependent effect
RKO [2] = test: Induction of apoptosis in human RKO cells assessed as early apoptotic cells at 25 uM measured after 48 hrs by Annexin V-FITC/PI staining based flow cytometry analysis (reference value: 3.56 %); format: functional
SW480 = test: cells; conditions: Homo sapiens, SW480, 96 h
NCI-H460 = test: Upregulation of MDM2 protein expression in human NCI-H460 cells at 2.5 uM measured after 24 hrs by Western blot analysis; format: functional, cell-based
RKO [3] = test: Antitumor activity against human RKO cells xenografted in BALB/c mouse assessed as tumor growth inhibition at 100 mg/kg, po bid administered via gavage for 21 consecutive days and measured on day 21 relative to control; format: functional; conditions: 504 h, time 21 day, read-out: TGI
RKO [4] = test: Induction of apoptosis in human RKO cells assessed as viable cells at 12.5 uM measured after 48 hrs by Annexin V-FITC/PI staining based flow cytometry analysis (reference value: 93.54 %); format: functional; conditions: read-out: Activity
RKO [5] = test: Induction of apoptosis in human RKO cells assessed as viable cells at 25 uM measured after 48 hrs by Annexin V-FITC/PI staining based flow cytometry analysis (reference value: 93.54 %); format: functional; conditions: read-out: Activity
HCT-116 = test: Induction of PARP cleavage in human HCT-116 cells incubated for 24 hrs by Western blot analysis; format: functional, cell-based; conditions: dose 0.078125-2.5 µM, DDE = dose-dependent effect
U2OS = test: Upregulation of p53 protein expression in human U2OS cells at 2.5 uM measured after 24 hrs by Western blot analysis; format: functional, cell-based
RKO [6] = test: Induction of PARP cleavage in human RKO cells at 0.3125 to 2.5 uM incubated for 24 hrs by Western blot analysis; format: functional, cell-based; conditions: dose 0.3125-2.5 µM
Homo sapiens = organism: Homo sapiens; test: Potency index, ratio of RG7388 Ki to test compound Ki for displacement of 5-FAM labeled PDI peptide from MDM4 C17S mutant (14 to 111 residues) (unknown origin) expressed in Escherichia coli BL21 (DE3) assessed as inhibition constant incubated for 1.5 hrs by fluorescence polarization competition assay
RKO [7] = test: Antitumor activity against human RKO cells xenografted in BALB/c mouse assessed as tumor growth inhibition at 50 mg/kg, po qd administered via gavage for 21 consecutive days and measured on day 21 relative to control; format: functional; conditions: 504 h, time 21 day, read-out: TGI
RKO [8] = test: Upregulation of p53 expression in human RKO cells incubated for 24 hrs by Western blot analysis; format: functional, cell-based; conditions: dose 0.3125-2.5 µM, DDE = dose-dependent effect
MCF7 = test: Upregulation of MDM2 protein expression in human MCF7 cells at 2.5 uM measured after 24 hrs by Western blot analysis; format: functional, cell-based
RKO [9] = test: Induction of cell cycle arrest in human RKO cells assessed as effect on cell cycle distribution incubated for 24 hrs by FACSCalibur flow cytometry analysis; format: functional, cell-based; conditions: dose 6.25-25 µM, DDE = dose-dependent effect

Cellular tumor antigen p53 (Homo sapiens), sequence (P04637 whole entry, looked up): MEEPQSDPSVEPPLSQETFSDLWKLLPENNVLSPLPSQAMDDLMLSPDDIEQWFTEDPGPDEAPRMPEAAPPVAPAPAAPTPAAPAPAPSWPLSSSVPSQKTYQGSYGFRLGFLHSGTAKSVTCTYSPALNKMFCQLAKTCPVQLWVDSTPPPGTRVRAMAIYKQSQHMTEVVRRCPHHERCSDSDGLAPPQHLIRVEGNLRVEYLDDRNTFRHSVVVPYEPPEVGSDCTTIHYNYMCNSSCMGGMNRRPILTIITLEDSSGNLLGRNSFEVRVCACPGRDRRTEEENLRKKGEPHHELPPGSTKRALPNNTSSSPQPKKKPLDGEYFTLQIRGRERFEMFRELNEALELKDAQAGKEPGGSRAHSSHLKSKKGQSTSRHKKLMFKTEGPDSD

With `COc1cc(C(=O)O)ccc1NC(=O)[C@@H]1N[C@@H](CC(C)(C)C)[C@](CNCc2ccncc2)(c2ccc(Cl)cc2F)[C@H]1c1cccc(Cl)c1F` the IC50 (HeLa) was 7.37 µM, the Activity [1] was “Dde” and the Activity (RKO [2]) was 34.16%. The IC50 (SW480) was 2.82 µM, the Activity (NCI-H460) was “Active” and the inhibition in vivo at 100 mg/kg (RKO [3]) was 18%. For the same molecule, the viability at 12.5 µM (RKO [4]) was 85%, the viability at 25 µM (RKO [5]) was 7.52% and the Activity (HCT-116) was “Dde”. For the same molecule, the Activity (U2OS) was “Active”, the Activity (RKO [6]) was “Active” and the Ratio Ki (Homo sapiens) was 6. The inhibition in vivo at 50 mg/kg (RKO [7]) was 5%, the Activity (RKO [8]) was “Dde” and the Activity (MCF7) was “Active”. For the same molecule, the Activity (RKO [9]) was “Dde”.

Reference: ChEMBL document CHEMBL5154862, “Structure-Based Discovery of MDM2/4 Dual Inhibitors that Exert Antitumor Activities against MDM4-Overexpressing Cancer Cells” (J Med Chem, 2022)
